US12157741B2, “Macrocyclic inhibitors of DYRK1A” (DANA-FARBER CANCER INSTITUTE, INC., priority 2018, dated 2024)
Like-named read-outs stand apart in the source and are kept apart here.

Key:
[1] = target: T1, various enzymes (Homo sapiens, UniProt O14757); details: CHEK1; 1 uM
T1 sequence (O14757 1-476): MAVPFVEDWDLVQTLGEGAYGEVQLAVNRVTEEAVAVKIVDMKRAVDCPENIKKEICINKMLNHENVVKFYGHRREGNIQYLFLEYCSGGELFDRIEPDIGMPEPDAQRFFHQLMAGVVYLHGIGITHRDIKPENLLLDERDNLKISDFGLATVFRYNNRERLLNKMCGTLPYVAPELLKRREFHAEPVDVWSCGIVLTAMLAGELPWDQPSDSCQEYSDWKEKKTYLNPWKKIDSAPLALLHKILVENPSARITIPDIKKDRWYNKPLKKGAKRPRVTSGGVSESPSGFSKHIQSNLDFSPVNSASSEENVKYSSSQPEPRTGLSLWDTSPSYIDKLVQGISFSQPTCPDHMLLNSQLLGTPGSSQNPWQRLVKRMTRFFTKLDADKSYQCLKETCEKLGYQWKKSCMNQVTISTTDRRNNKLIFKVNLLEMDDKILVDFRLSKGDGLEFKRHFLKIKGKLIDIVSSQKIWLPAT
Method: (§2) Ambit profiling from Eurofins (formerly Discoverx) was conducted in accordance with the manufacturer's instructions.

[2] = target: various enzymes (Homo sapiens, UniProt P00533); details: EGFR; 1 uM
Method: as §2

[3] = target: various enzymes (Homo sapiens, UniProt P00533, DEL746-750); details: EGFR(E746-A750del); 1 uM
Method: as §2

[4] = target: T2, various enzymes (Homo sapiens, UniProt P00533, DEL747-752/P753S)
Method: as §2

[5] = target: T3, various enzymes (Homo sapiens, UniProt P00533, DELINS747-751S); details: EGFR(L747-T751del, Sins); 1 uM
Method: as §2

[6] = target: various enzymes (Homo sapiens, UniProt P29597); details: 1 uM
Method: as §2

[7] = target: various enzymes (Homo sapiens, UniProt P45984); details: JNK2; 1 uM
Method: as §2

[8] = target: various enzymes (Homo sapiens, UniProt Q9BWU1); details: CDK11; 1 uM
Method: as §2

[9] = target: various enzymes (Homo sapiens, UniProt Q9Y6E0); details: MST3; 1 uM
Method: as §2

[10] = target: various enzymes (Homo sapiens, UniProt P30530); format: binding; details: compound 1 uM
Method: (§1) Ambit profiling was conducted in accordance with the manufacturer's instructions.

[11] = target: various enzymes (Homo sapiens, UniProt Q13627); format: binding; details: compound 1 uM
Method: as §1

[12] = target: various enzymes (Homo sapiens, UniProt Q9NQU5); format: binding; details: compound 1 uM
Method: as §1

[13] = tested on: various enzymes; format: binding; details: statement in words, compared with compound 48
Method: as §1

[14] = target: T3, various enzymes; format: binding; parameters: other: EGFR(L747-T751del, Sins); 1 uM; other: compound 1 uM; details: compound 1 uM
Method: as §1

[15] = target: T2, various enzymes; format: binding; parameters: other: EGFR(L747-S752del, P753S); 1 uM; other: compound 1 uM
Method: as §1

[16] = target: various enzymes (Homo sapiens, UniProt P00533, DEL747-749/A750P); format: binding; parameters: other: EGFR(L747-E749del, A750); 1 uM; other: EGFR(L747-E749del, A750P); other: compound 1 uM
Method: as §1

[17] = target: T4, LRRK2 (G2019S) (Homo sapiens, UniProt Q5S007, G2019S); experiment: LRRK2(G2019S) enzyme assay (Promega ADP-Glo Kinase assay); format: biochemical; details: 25 μM ATP, read-out: Enzyme activity against LRRK2 (G2019S)
T4 construct: purchased SignalChem L10-12GG
Method: All LRRK2 kinase inhibition assays were conducted by using Promega™ ADP-Glo™ Kinase assay systems (Cat No. V4475).
For LRRK G2019S, each compound mixed with 0.2 μg/μL of substrate, 25 μM ATP, 16 ng of LRRK2 G2019S enzyme (SignalChem, L10-12GG). All samples were diluted with kinase reaction buffer (40 mmol/L TrisHCl, 10 mmol/L MgCl2, and 0.1 μg/μL BSA, 0.05 mM DTT). After a 2 h reaction at 25° C., ADP-Glo™ (Promega™, V9102) reagent was added and incubated at rt for 40 min. Finally, kinase detection reagent (Promega™, Cat No. V6930) was added and reacted at 25° C. for 10 min. The luminescence signals were detected by using Synergy™ Neo2 microplate reader (BioTek®). Compound inhibition curve was fitted using GraphPad Prism 8.0 software.

[18] = target: various enzymes (Homo sapiens, UniProt O00141); experiment: Enzyme IC50 of compound 48 (Table 3); format: biochemical; details: SGK
[19] = target: T5, various enzymes (Homo sapiens, UniProt P36888, D835V, form not given); experiment: Enzyme IC50 of compound 48 (Table 3); format: biochemical; details: read-out: Enzyme IC50; FLT3(ITD, D835V)
T5 construct: Enzyme IC50; other: FLT3(ITD, D835V)

[20] = target: various enzymes (Homo sapiens, UniProt Q9Y2I7); details: PIKFYVE; 1 uM
Method: as §2

[21] = target: various enzymes (Homo sapiens, UniProt Q9UKE5); experiment: Enzyme IC50 of compound 48 (Table 3); format: biochemical; parameters: Enzyme IC50; other: TNIK; details: TNIK
[22] = tested on: various enzymes (Homo sapiens); format: binding; details: compound 1 uM
Method: as §1

[23] = target: various enzymes (Homo sapiens, UniProt P09769); format: binding; details: compound 1 uM
Method: as §1

Sequence of various enzymes (Homo sapiens, UniProt P29597) (P29597 whole entry): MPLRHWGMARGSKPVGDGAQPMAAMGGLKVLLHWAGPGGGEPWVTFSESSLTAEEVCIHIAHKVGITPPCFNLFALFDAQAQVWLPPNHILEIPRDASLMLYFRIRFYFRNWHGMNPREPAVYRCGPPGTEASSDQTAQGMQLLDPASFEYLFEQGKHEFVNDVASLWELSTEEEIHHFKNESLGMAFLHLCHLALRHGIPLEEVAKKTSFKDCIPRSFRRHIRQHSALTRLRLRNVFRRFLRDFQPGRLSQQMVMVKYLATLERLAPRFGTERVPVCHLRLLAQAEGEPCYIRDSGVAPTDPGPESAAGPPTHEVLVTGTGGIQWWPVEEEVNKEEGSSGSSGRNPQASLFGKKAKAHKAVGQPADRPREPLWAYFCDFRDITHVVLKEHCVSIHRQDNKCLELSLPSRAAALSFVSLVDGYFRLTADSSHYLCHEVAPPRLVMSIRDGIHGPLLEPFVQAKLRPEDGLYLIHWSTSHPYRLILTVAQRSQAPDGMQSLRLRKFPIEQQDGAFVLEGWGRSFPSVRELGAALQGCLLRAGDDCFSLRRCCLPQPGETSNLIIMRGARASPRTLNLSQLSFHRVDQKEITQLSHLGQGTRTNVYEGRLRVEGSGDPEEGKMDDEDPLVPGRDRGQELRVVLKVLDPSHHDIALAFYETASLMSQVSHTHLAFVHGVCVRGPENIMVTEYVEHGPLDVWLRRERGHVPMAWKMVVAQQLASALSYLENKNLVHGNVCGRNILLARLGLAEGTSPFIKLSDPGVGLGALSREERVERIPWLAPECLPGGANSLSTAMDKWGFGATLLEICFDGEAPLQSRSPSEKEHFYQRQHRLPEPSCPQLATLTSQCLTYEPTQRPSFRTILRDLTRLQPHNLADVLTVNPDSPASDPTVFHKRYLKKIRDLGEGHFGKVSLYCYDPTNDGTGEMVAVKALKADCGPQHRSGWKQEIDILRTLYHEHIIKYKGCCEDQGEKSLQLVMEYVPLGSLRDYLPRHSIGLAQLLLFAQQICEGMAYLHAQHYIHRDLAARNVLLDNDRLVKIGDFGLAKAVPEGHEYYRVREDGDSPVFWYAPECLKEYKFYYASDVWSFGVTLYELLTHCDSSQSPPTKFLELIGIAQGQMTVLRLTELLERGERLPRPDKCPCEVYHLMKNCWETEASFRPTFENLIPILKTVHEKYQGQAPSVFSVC
Sequence of various enzymes (Homo sapiens, UniProt Q9Y6E0) (Q9Y6E0 whole entry): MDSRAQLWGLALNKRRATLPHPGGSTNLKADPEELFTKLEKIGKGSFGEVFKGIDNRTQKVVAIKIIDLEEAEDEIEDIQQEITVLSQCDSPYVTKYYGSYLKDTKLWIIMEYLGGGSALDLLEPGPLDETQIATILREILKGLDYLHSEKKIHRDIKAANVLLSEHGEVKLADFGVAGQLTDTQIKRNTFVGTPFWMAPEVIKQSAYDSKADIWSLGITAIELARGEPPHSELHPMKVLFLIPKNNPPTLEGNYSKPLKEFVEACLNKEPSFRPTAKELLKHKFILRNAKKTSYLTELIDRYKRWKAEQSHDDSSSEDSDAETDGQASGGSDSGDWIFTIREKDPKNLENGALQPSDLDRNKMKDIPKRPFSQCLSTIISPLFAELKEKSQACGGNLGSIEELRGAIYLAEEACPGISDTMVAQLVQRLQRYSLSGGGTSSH
Sequence of various enzymes (Homo sapiens, UniProt Q9BWU1) (Q9BWU1 whole entry): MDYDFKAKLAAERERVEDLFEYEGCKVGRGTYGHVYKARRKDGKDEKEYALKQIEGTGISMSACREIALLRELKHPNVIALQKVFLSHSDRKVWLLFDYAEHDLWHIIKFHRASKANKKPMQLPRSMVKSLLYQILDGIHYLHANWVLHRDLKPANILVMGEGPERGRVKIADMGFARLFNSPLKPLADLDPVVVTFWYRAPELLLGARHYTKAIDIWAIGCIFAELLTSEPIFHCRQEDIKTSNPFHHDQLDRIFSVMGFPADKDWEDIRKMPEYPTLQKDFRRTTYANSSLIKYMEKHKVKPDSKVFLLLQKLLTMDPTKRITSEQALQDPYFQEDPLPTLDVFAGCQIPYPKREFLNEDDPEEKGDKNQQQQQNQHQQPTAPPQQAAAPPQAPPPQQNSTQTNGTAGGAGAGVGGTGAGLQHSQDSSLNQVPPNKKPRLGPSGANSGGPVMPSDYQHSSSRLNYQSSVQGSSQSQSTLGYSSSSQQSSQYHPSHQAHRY
Sequence of various enzymes (Homo sapiens, UniProt P45984) (P45984 whole entry): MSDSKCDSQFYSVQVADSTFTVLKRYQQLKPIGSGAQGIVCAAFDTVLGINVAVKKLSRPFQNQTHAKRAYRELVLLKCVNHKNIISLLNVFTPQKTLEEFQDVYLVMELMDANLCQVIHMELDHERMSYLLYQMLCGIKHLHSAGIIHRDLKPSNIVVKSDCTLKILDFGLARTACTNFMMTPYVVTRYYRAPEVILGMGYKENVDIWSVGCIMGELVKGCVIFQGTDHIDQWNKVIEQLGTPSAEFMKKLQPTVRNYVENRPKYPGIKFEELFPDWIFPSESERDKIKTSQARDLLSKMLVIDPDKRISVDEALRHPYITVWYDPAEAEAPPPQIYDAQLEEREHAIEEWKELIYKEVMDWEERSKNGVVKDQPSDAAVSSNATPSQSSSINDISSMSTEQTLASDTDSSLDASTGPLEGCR
Sequence of various enzymes (Homo sapiens, UniProt Q9UKE5) (Q9UKE5 whole entry): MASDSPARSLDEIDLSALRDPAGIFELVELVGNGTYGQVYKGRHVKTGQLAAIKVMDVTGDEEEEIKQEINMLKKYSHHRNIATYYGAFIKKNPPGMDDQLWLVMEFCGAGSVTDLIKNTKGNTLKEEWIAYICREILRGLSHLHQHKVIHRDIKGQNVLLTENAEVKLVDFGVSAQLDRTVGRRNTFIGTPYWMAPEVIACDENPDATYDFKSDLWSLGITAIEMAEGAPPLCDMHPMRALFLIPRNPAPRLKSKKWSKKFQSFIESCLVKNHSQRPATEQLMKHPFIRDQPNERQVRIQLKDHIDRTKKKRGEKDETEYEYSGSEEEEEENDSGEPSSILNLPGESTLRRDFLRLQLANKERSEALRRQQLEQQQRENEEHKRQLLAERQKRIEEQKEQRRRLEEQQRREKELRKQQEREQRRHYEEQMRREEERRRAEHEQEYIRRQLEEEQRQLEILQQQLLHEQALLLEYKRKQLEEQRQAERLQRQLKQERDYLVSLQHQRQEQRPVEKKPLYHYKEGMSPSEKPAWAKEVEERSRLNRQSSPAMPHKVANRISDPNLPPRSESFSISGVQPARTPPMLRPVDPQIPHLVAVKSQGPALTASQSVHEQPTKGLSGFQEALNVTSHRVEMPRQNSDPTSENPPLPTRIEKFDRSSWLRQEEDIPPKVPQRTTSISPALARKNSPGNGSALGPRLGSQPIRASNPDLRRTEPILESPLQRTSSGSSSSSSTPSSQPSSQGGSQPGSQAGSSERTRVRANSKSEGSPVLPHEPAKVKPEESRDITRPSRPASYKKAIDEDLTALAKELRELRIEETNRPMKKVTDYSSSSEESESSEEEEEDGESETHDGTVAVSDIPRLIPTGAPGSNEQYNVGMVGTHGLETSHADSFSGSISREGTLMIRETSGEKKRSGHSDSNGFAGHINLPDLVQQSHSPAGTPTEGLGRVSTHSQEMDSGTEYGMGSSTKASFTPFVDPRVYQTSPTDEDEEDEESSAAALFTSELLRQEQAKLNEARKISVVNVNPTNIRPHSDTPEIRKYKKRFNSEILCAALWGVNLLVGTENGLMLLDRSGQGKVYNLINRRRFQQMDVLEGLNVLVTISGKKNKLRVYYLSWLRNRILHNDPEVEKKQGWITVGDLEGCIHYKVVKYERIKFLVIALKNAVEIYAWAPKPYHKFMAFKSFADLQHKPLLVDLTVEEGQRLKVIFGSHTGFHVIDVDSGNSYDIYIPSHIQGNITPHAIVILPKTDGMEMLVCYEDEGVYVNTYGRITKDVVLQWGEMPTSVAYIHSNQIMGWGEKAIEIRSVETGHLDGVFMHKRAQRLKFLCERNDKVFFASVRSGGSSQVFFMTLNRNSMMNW
Sequence of various enzymes (Homo sapiens, UniProt O00141) (O00141 whole entry): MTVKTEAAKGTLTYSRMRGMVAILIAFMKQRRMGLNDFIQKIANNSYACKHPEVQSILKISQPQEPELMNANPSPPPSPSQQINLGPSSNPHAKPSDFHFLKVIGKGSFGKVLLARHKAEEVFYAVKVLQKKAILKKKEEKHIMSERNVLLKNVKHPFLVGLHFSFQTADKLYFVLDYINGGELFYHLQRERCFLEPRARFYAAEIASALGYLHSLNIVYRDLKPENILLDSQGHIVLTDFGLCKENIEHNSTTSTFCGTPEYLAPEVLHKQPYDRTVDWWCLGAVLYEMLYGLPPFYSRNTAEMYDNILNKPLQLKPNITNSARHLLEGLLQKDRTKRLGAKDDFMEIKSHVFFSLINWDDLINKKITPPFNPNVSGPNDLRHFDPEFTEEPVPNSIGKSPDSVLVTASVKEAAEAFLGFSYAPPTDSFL
Sequence of various enzymes (Homo sapiens, UniProt Q9NQU5) (Q9NQU5 whole entry): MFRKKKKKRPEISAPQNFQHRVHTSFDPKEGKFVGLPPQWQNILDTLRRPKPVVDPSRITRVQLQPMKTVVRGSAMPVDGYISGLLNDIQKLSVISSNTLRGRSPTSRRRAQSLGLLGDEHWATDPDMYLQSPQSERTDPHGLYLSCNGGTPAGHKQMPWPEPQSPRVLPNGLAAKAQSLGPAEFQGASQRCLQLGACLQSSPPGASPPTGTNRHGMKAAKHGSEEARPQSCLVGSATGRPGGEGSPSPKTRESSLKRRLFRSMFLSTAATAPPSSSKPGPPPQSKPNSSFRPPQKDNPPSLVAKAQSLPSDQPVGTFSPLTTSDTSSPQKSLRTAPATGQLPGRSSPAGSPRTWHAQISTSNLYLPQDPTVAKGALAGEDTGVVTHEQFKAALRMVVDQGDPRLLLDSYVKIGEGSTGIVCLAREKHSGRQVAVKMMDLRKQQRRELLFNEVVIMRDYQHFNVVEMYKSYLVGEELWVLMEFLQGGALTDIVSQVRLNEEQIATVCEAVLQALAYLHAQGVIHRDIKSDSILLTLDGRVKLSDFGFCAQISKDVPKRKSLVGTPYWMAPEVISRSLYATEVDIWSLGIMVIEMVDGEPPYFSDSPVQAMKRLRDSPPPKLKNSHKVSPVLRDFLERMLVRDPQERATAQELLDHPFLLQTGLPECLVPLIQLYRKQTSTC
Sequence of various enzymes (Homo sapiens) (Q9NQU5 whole entry): as above

| SMILES | Ambit profiling [1] | Ambit profiling [2] | Ambit profiling [3] | Ambit profiling [5] | Ambit profiling ([6]; TYK2(JH1domain-catalytic)) | Ambit profiling ([6]; TYK2(JH2domain-pseudokinase)) | Ambit profiling [7] | Ambit profiling [8] | Ambit profiling [9] | Ambit profiling: EGFR(L747-T751del, Sins) [14] | further results |
| --- | --- | --- | --- | --- | --- | --- | --- | --- | --- | --- | --- |
| CN1Cc2nn(C)cc2-c2cnc3[nH]cc(c3c2)-c2cnn(c2)CCCC1=O [Compound 41, (Z)-31,5-dimethyl-11H,21H,31H-5-aza-2(3,5)-pyrrolo[2,3-b]pyridina-1(4,1),3(4,3)-dipyrazolacyclononaphan-6-one] | 100 | 86 | 100 | 100 | 2.3 | 100 | 1.1 | 84 | 39 | – | Ambit profiling ([4]; EGFR(L747-S752del, P753S), 1 uM): 100 |
| CC(C)N1Cc2nn(C)cc2-c2cnc3[nH]cc(c3c2)-c2cn(nc2C(F)(F)F)CCCC1=O [Compound 45, (Z)-5-isopropyl-31-methyl-13-(trifluoromethyl)-11H,21H,31H-5-aza-2(3,5)-pyrrolo[2,3-b]pyridina-1(4,1),3(4,3)-dipyrazolacyclononaphan-6-one] | – | – | – | – | – | – | – | – | – | 31 | Ambit profiling: AXL [10]: 0; Ambit profiling: DYRK1A [11]: 0.3; Ambit profiling: PAK6 [12]: 70; selectivity for DYRK1A (Ambit profiling, Table 4) [13]: not as selective for DYRK1A as compound 48; Ambit profiling: EGFR(L747-S752del, P753S) ([15]; compound 1 uM): 15; Ambit profiling: EGFR(L747-E749del, A750P) ([16]; compound 1 uM): 10 |
| CN1Cc2nn(C)c(C#N)c2-c2cnc3[nH]cc(c3c2)-c2cn(nc2C(F)(F)F)CCCC1=O [Compound 48, (Z)-31,5-dimethyl-6-oxo-13-(trifluoromethyl)-11H,21H,31H-5-aza-2(3,5)-pyrrolo[2,3-b]pyridina-1(4,1),3(4,3)-dipyrazolacyclononaphane-35-carbonitrile] | 93 | 76 | 35 | 50 | 84 | 100 | 8.1 | 100 | 86 | – | IC50 [17]: > 100 nM; IC50 [18]: 212 nM; IC50 [19]: 354 nM; Ambit profiling [4]: 74; Ambit profiling [20]: 94; IC50 [21]: 87 nM |
| COc1c2c(nn1C)CN(C(C)C)C(=O)CCCn1cc(c(C(F)(F)F)n1)-c1c[nH]c3ncc-2cc13 [Compound 50, (Z)-5-isopropyl-35-methoxy-31-methyl-13-(trifluoromethyl)-11H,21H,31H-5-aza-2(3,5)-pyrrolo[2,3-b]pyridina-1(4,1),3(4,3)-dipyrazolacyclononaphan-6-one] | – | – | – | – | – | – | – | – | – | 22 | Ambit profiling: PAK8 [22]: 86; Ambit profiling: FGR [23]: 5.2; Ambit profiling: EGFR(L747-S752del, P753S) [15]: 14; Ambit profiling: EGFR(L747-E749del, A750P) [16]: 3.1 |
